We go through 4 molecules from publication PMC9332833 (Cancers, 2022).

The subject of series [1] is K562 cells. In words: MTT viability test, K562. It is filed as cell-based. Particulars: Homo sapiens; for viability at 0.005 µM: K562, 48 h, 0,005 µM; for IC50: K562. The method, then:
CML cell line K562 CCL-243™ (BCR-ABL^+) was purchased from the ATCC® (Manassas, VA, USA). Cells were grown in RPMI 1640 medium containing HEPES (Biowest, Nuaillé, France) with 2 mM GlutaMAX (Gibco, Grand Island, NY, USA), supplemented with 10% fetal bovine serum (Sigma-Aldrich, St. Louis, MO, USA) and […] (Gibco, Grand Island, NY, USA) and 0.1 µM Vincristine (for K562-MDR1).
(§1) Cells were seeded in 96-well plates; after 24 h, medium with the appropriate drug concentration was added to each well. After 48 h, Tetrazolium Bromide (Sigma-Aldrich, St. Louis, MO, USA) was added to each well for 2–3 h. After that, cells were lysed and formazan crystals were dissolved. Absorbance was read using an iMark Microplate absorbance reader (Bio-Rad, Hercules, CA, USA). Results were calculated relative to cells treated with DMSO only. […]
(§2) Cells were seeded in 96-well plates at 7 × 10^3 cells/well in 50 µL of complete medium (for K562 or K562-MDR1) or at 50 × 10^3 cells/well in 50 µL of complete medium (CD34+ cells). After 24 hours, 50 µL of medium with the appropriate drug concentration was added to each well. The final DMSO concentration per well was 1% for K562 and K562-MDR1 and 0.1% for CD34+ cells. After 48 hours, 20 µL of Tetrazolium Bromide (Sigma-Aldrich, St. Louis, MO, USA) at a concentration of 5 mg/mL was added to each well. Cells were incubated for 2-3 hours in a cell culture incubator, and then 10% SDS with 1% HCl was added to each well to lyse the cells and dissolve the formazan crystals. Plates were […]
For orientation: Tetrazolium dyes change colour on reduction, which living cells bring about.

For series [2], the system named is K562-MDR1 cells. In words: MTT viability test, K562-MDR1. The format is cell-based, human. Particulars: for viability at 0.005 µM: 48 h, 0,005 µM; for IC50: MTT; for Cross-resistance of K562-MDR1 cells: MTT assay.
From the text: The K562-MDR1 cell line was developed using increasing concentrations of the commonly used antimitotic drug vincristine on a polyclonal K562 population, as described earlier. […] The DMSO concentration in the culture was 0.1%. The vincristine dose was doubled every 2–3 weeks (at least twice for each experiment) after the cells reached confluence. Cell’s viability was above 90%, as confirmed by Muse Cell Analyzer (Merck Millipore, Burlington, MA, USA). The final concentration of vincristine reached was 0.1 μM. The increase in the K562-MDR1 population was confirmed by flow cytometry and PCR.
as §1, §2

In series [3] the test system is K562 cells. As to the kind of experiment: K562 xenogeneic mouse model, tumor growth. It is filed as in vivo, NSG mice. As to the method: Statistical analysis was performed using GraphPad Prism version 9.1.0. All in vitro experiments were performed in at least triplicate biological replicates and statistical results are expressed as mean ± standard deviation (SD). Statistical data of animal experiments are expressed as mean ± standard error of the mean (SEM). For experiments involving patients, the normality of the distribution was checked using the Shapiro–Wilk test and the statistical analysis was performed using one-way ANOVA with Dunnett’s post-test * p < 0.05, ** […], *** 0.001 > p > 0.0001, **** p < 0.0001.
Table S3. […] Control and
IP, intraperitoneal administration; O, orally

The nature of series [4]: Blood morphology in K562 xenograft mice. The note with it: 500 mg/kg IP daily 14 days, N=4.
Method: (§3) Eight-week-old female NOD.Cg-Prkdcscid Il2rgtm1Wjl/SzJ NSG mice (Jackson Laboratory, Bar Harbor, ME, USA) were injected subcutaneously into the dorsal fold with 1 × 10^6 K562 cells of the human chronic myeloid leukemia (CML) line in a final volume of 100 µL (0.5% of the mouse weight). On day 3 after cell administration, mice were randomly assigned to each group, and on days 4–17 of the experiment, the selected tested compounds and control solutions were administered intraperitoneally or orally. During the experiment, subcutaneous tumors and body weight were measured daily. Tumor growth during the experiment was measured with an electronic display caliper. The theoretical tumor volume [mm], was calculated according to the formula (a^2 × b) * 0.5, where a is the shorter tumor axis [mm] and b is the longer tumor axis [mm]. On day 26, the experiment was terminated: blood was collected and analyzed for cellular morphology and standard biochemistry metabolites. Tumors were weighed.
(§4) Control and treated mice were grouped according to the tested compounds and the scheme of their administrations (doses, administration frequencies, routes of administration) in the CML xenogeneic model obtained by subcutaneous transplantation of 1 × 10^6 cells of the human CML blast line K562 into mice NOD.Cg-Prkdcscid Il2rgtm1Wjl/SzJ (NSG).
(§5) Hydroxyurea K562 500 mg/kg, IP Aqua pro 1 x daily 8
Series [5] can be described thus: Body and organ weights in K562 xenograft mice.
Method: as §3, §4, §5
In series [6] the test system is K562-MDR1 cells. As to the kind of experiment: P-glycoprotein (CD243)/propidium iodide flow cytometry. It is filed as cell-based, human. The note with it: 1 µM, 24 h; for Proportion of K562-MDR1 cells, mean value: DMSO control 33.6%; for viability at 1 µM: Homo sapiens, DMSO control 89.2%, read-out: Living cells (viability), mean value. The method, then:
BK124.1 or DMSO were added to cells and after 24 h incubation cells were harvested and stained with FITC Mouse Anti-Human P-glycoprotein (CD243) clone 17F9 (BD, Franklin Lakes, NJ, USA) or an appropriate isotype control. Propidium iodide was added to […]. Cells were analyzed on a BD FACSCalibur flow cytometer using CellQuest software (BD, Franklin Lakes, NJ, USA). […]
Flow cytometry analysis of CD243 (P-glycoprotein)
Cells were seeded at a concentration of 1-2 × 10^5 cells/mL in a 6- or 24-well plate. After 24 hours of pre-incubation, DMSO or test compounds in DMSO were added. The cells were then incubated for 24 hours. After this time, cells were harvested, washed with 0.5% BSA in PBS (Mg2+ and Ca2+ free), and labeled for 30 minutes on ice with FITC Mouse Anti-Human P-glycoprotein (CD243) clone 17F9 (BD, Franklin Lakes, NJ, USA) or an appropriate isotype control. Following incubation with the antibody, cells were stained with propidium iodide, washed with PBS and a nalyzed on a BD FACSCalibur flow cytometer using CellQuest software (BD, Franklin Lakes, NJ, USA). […]
(In general: In flow cytometry, cells or beads pass a laser one at a time.)

The mark [7] stands for this setting: 48 h, mean ± SD, read-out: Viability in relation to control.
[8] abbreviates: Homo sapiens, 48 h, 0,05 µM, 48 h, mean ± SD, read-out: Viability in relation to control.
The mark [9] stands for this setting: Homo sapiens, 48 h, mean ± SD, read-out: Viability in relation to control.
Setting [10] is: Homo sapiens, 48 h, 5 µM, 48 h, mean ± SD, read-out: Viability in relation to control.
[11] abbreviates: mean ± SD, standard range 0.0-99.0.
[12] abbreviates: 500 mg/kg IP daily 14 days, mean ± SD, N=4.

Like-named read-outs stand apart in the source and are kept apart here.

On to `COc1cccc2c1C(=O)c1c(O)c3c(c(O)c1C2=O)C[C@@](O)(C(=O)CO)C[C@@H]3O[C@H]1C[C@H](N)[C@H](O)[C@H](C)O1` [doxorubicin], for which the viability (usually a read-out of living cells in per cent, often relative to untreated cells) at 0.005 µM in the series on K562 cells [1] (setting [7]) is 97.7%; in the series with K562-MDR1 cells [2] (setting [9]) it was 99.4%. In addition, the IC50 – broadly, the concentration at which inhibition is half-maximal – came out at 3.7 µM in the series on K562 cells [1] (MTT, 48 h) and 7 µM with K562-MDR1 cells [2] (Homo sapiens, 48 h). Besides, the viability at 5 µM with K562-MDR1 cells [2] (setting [8]) worked out at 101%; in the series on K562-MDR1 cells [2] (setting [10]) it was 45.1%. Further, in the series on K562-MDR1 cells [2], the “Cross-resistance of K562-MDR1 cells” value is given as “confirmed”.
In the series with K562 cells [3] (500 mg/kg IP daily 14 days, mean ± SD, N=4, tumor growth control 9.2±2.1), `NC(=O)NO` [hydroxyurea, reference compound] gave a Tumor weights of 1.8 ± 0.9 g. Besides, in the series on K562 cells [3] (BK124.1 20 or 30 mg/kg IP, imatinib 100 mg/kg orally, hydroxyurea 500 mg/kg IP, 1 x daily), the “Tumor growth versus control groups” value is “effectively inhibited”. In series [4] (setting [11]), this molecule yielded a GRA of 26.0±7.6%, an LYMP of 58.0±9.9% and an MON of 16.0±3.8%. Moreover, the HGB in series [4] (mean ± SD, standard range 1.1-18) turned out to be 13.1 ± 0.8 g/dL. Further, the WBC in series [4] (mean ± SD, standard range 3.0-15) was 8.1±4.3 103/μL. Further, the MPV in series [4] (mean ± SD, standard range 4.6-7.3) is on record as 3.6±4.3 μm3. For the same molecule, in series [4] (mean ± SD, standard range 5.0-12), the RBC is recorded as 6.9±0.4 106/μL. For the same molecule, the RDW in series [4] (mean ± SD, standard range 11.5-14.5) stood at 17.3±0.6%. The molecule also showed an MCH in series [4] (mean ± SD, standard range 12-24.5) of 18.9 ± 0.5 pg. This molecule also registered an MCHC in series [4] (mean ± SD, standard range 21.6-42) of 31.5 ± 0.3 g/dL. The molecule also registered an HCT in series [4] (mean ± SD, standard range 36-52) of 41.5±2.4%. In series [4] (mean, standard range 140-600), the PLT was 1575.5 103/μL. In series [5] (setting [12]), the Brain weight came out at 0.46 ± 0.02 g, the Heart weight was determined as 0.11 ± 0.03 g, the Kidneys weight was found to be 0.27 ± 0.04 g and the Liver weight was determined as 1.16 ± 0.13 g. Moreover, in series [5] (setting [12]), the Lung weight came to 0.25 ± 0.08 g and the Splean weight was 0.05 ± 0.01 g. The “Total body weight course” value in series [5] (doses as in Table S3, control mice gained mass in the last 5 days) is recorded as “began to lose large quantities of weight”.
On to `CC(=O)O[C@H]1C(=O)[C@@]2(C)[C@H]([C@H](OC(=O)c3ccccc3)[C@]3(O)C[C@H](OC(=O)[C@H](O)[C@@H](NC(=O)c4ccccc4)c4ccccc4)C(C)=C1C3(C)C)[C@]1(OC(C)=O)CO[C@@H]1C[C@@H]2O` [paclitaxel], for which the viability at 0.005 µM with K562 cells [1] (setting [7]) was 32.6%; with K562-MDR1 cells [2] (setting [9]), 100%. The viability at 5 µM in the series on K562-MDR1 cells [2] (setting [8]) was found to be 89.9%; in the series on K562-MDR1 cells [2] (Homo sapiens, 48 h, 0,5 µM, 48 h, mean ± SD, read-out: Viability in relation to control) it was 48.4%; in the series with K562-MDR1 cells [2] (setting [10]), 44.3%. The same molecule had an IC50 with K562-MDR1 cells [2] (Homo sapiens, 48 h) of 7 µM. In addition, the “Cross-resistance of K562-MDR1 cells” value in the series with K562-MDR1 cells [2] is recorded as “confirmed”. In the series on K562-MDR1 cells [6], the “Proportion of K562-MDR1 cells, mean value” turned out to be 33.7%. Besides, the viability at 1 µM with K562-MDR1 cells [6] amounted to 77.2%.
Consider `CC[C@]1(O)C[C@H]2CN(CCc3c([nH]c4ccccc34)[C@@](C(=O)OC)(c3cc4c(cc3OC)N(C=O)[C@H]3[C@@](O)(C(=O)OC)[C@H](OC(C)=O)[C@]5(CC)C=CCN6CC[C@]43[C@@H]65)C2)C1` [vincristine], for which the viability at 0.001 µM in the series on K562 cells [1] (K562, 48 h, 0,001 µM, 48 h, mean ± SD, read-out: Viability in relation to control) was 76.6%; in the series with K562-MDR1 cells [2] (Homo sapiens, 48 h, 0,001 µM, 48 h, mean ± SD, read-out: Viability in relation to control) it was 106%. The viability at 0.005 µM turned out to be 32.6% with K562 cells [1] (setting [7]) and 111% with K562-MDR1 cells [2] (setting [9]). The IC50 with K562 cells [1] (MTT assay) amounted to 0.003 µM; in the series on K562-MDR1 cells [2] (Homo sapiens, 48 h), 0.512 µM. The viability at 1 µM turned out to be 94.3% with K562-MDR1 cells [2] (Homo sapiens, 48 h, 0,1 µM, 48 h, mean ± SD, read-out: Viability in relation to control); 32.4% in the series on K562-MDR1 cells [2] (Homo sapiens, 48 h, 1 µM, 48 h, mean ± SD, read-out: Viability in relation to control); 79.7% with K562-MDR1 cells [6]. In addition, the “Proportion of K562-MDR1 cells, mean value” in the series with K562-MDR1 cells [6] came to 37.0%.
